We go through two compounds from US5770623A, “Argine antagonists for inhibition of systemic hypotension associated with nitric oxide production or endothelial derived relaxing factor” (Board of Regents, The University of Texas System, priority 1995, dated 1998).

Each structure is given as a SMILES string. “Also recorded” adds a separate entry of the source. A value given as a limit tells only on which side of the number the result lay.

In assay [1] the test system is nitroglycerin infused dogs. The experiment in a line: Nitroglycerin-induced hypotension in dogs (Example 2). Format: in vivo, dog. As for the experimental part: (§1) Four conditioned mongrel dogs, 2 males and 2 females, weighing 28 to 30 kgs, were studied. Care of the animals were in accordance with the recommendation of the American Association for Accreditation of Laboratory Animals [DHEW(DHHS) publication no. (NIH) 78-23, revised, 1978]. On the day of the experiment, the dogs were fasted overnight. They were anesthetized with phenobarbital (10 mg/kg). They were then intubated orally with a #10 fr. endotracheal tube and ventilated with a Harvard pump ventilator at a rate of 12 breaths per minute and a tidal volume of 15 ml/kg. An arterial line was percutaneously placed in the femoral artery on the day of the experiment.
(§2) Mean (electronic) and phasic systemic arterial pressures (SAP) were continuously recorded on a Hewlett-Packard recording system (model 7758B) using strain gauge manometers (Hewlett-Packard model 1290A) which were connected to the arterial line. Heart rate (HR) was determined from an EKG tracing and continuously recorded on the Hewlett-Packard recording system. Oxyhemoglobin saturation (SaO2) was obtained using a pulse oximeter (BIOX 111, Boulder, Colo.). continuous time-series records of SAP, HR, and SaO2 were obtained using a Lab Master analog-to-digital convertor (16 channel, 12 bit, 30 kHz; Scientific Solutions, Inc.) sampling at 55 Hz and storing the 6 sec averages on a magnetic disk.
This was followed by a compensatory decrease in the HR with a return of the BP to baseline. The NMMA-induced bradycardia lasted 31 minutes. This response was not observed in animals which had been previously treated with TNF. In a subsequent experiment (FIG. 7a) the hypotensive response to TNF was especially severe, with a decrease in BP from 125 mm to 36 mmHg. […] This was associated with a decrease in the HR from 101 to 92 beats/minute. […] In a second control study nitroglycerin was infused at a rate of 28 μg/kg/minute, IV, to lower the blood pressure to the same level as that observed with tumor necrosis factor (FIG. 7c).

The next assay relates to endotoxemic dogs. The assay can be described thus: Endotoxin-induced hypotension in dogs (Example 5). The format is in vivo, dog. As for the experimental part: Administration of ET to dogs was clearly more toxic and less predictable than TNF administration. […] Within 1.5 minutes the blood pressure increased by 33±2.5 mmHg.
For assay [2], the system named is mongrel dogs with TNF-induced hypotension. The experiment in a line: TNF-induced hypotension in anesthetized dogs. The settings on record: for effect of L-arginine on NMMA pressor effect (words): TNF- and NMMA-treated dogs. Format: in vivo, dog. As for the experimental part:
Recombinant human TNF specific activity 2×10^7 units/mg, was from the Niposn Chemical Corporation, Tokyo, Japan. TNF was administered at a dose of 10 mcg/kg in a volume of 10 ml of phosphate buffered saline containing 2 mgs/ml of dog albumin. […] Arginine was obtained from Sigma Chemical Company, St. Louis, Mo.
as §1, §2

The subject of assay [3] is nitroglycerin-treated dogs. The assay can be described thus: Nitroglycerin-induced hypotension in dogs (Example 4). The settings on record: for Cardiac Output / Heart Rate / Systemic Arterial Pressure / Systemic Vascular Resistance: Table 1, Study 2: Nitroglycerin-treated (n = 3). Format: in vivo, dog. Here is the method:
(§3) Animals: Studies were carried out on 12 conditioned mongrel dogs (9 males and 3 females) weighing 22-32 kg (avg=25.3 kg). Animal care was in accordance with the recommendations of the American Association for Accreditation of Laboratory Animal Care, and met all standards prescribed by the Guide for the Care and Use of Laboratory Animals (Guide for the Care and Use of Laboratory Animals (1978) Dept. of Health, Education and Welfare, Washington, D.C. (Publ. No. 78-23). Animal protocols were approved by The University of Texas Animal Welfare Committee. The dogs were fasted overnight prior to the day of experimentation. They were anesthetized with sodium pentobarbital (25 mg/kg I.v.). Dogs were then endotracheally intubated and ventilated with a piston-driven respirator (Harvard instruments) using room air at a tidal volume of 20 ml/kg and at a rate of 10 to 12 breaths per minute, adjusted to achieve a normal arterial pH and pCO2 (Instrumentation Laboratories 1L13012 pH/Blood Gas Analyzer). Catheters were placed percutaneously into the femoral and pulmonary arteries; In the latter, a flow-directed thermal-dilation catheter was used (Abbott Critical Care Systems).
(§4) Physiologic measurements: Mean SAP and heart rate were continuously monitored (Parametron 7048 Monitoring System, Roche) and stored on a magnetic disk using an analog-to-digital converter (Scientific Solutions, Inc.). Cardiac output (CO) was determined as the mean of six measurements by thermal-dilution. Systemic vascular resistance was calculated as (SAP X80)/CO and expressed as […].
(§5) Protocol: After the blood pressure and heart rate stabilized, endotoxin (40 ug/kg, in 10 ml of phosphate-buffered saline (PBS), pH 7.4) was infused i.v. over 2 minutes. This dose of endotoxin typically induces severe and often lethal cardiovascular collapse in the dog. Blood pressure was monitored, and when either SAP fell below 60 mmHg or a stable nadir in systemic arterial pressure (SAP) was maintained for 10 minutes, L-NMA was administered (20 mg/kg in 5 ml of PBS i.v. over 1 min.). In most experiments, L-arginine (400 mg/kg in 20 mi PBS) was administered ten minutes later by i.v. infusion over 2 minutes. In control experiments, dogs without prior exposure to endotoxin received L-NMA alone. To simulate the hypotension observed in dogs receiving endotoxin, one group of dogs received a continuous i.v. infusion of nitroglycerin (2 mg/ml) at a rate adjusted to maintain the SAP at 60-70 mm Hg. Nitroglycerin-treated dogs then received L-NMA (20 mg/kg) and 20 minutes later L-arginine was administered […].
In an additional series of experiments, blood pressure was reduced to 65 mm Hg by continuous i.v. infusion of nitroglycerin, a hypotensive agent that forms NO by an L-arginine and NO synthetase-independent mechanism.

A further assay concerns control dogs. The experiment in a line: L-NMA in control dogs (Example 4). Format: in vivo, dog. The conditions noted are these: for increase in blood pressure (SAP) by L-NMA: control dogs, L-NMA 20 mg/kg, n=4. Here is the method:
as §3, §4, §5

Assay [4] relates to isolated guinea pig heart. The assay can be described thus: Histamine-induced nitrite release and coronary flow in isolated perfused guinea pig heart. The settings on record: for effect on coronary flow (vasodilation): histamine-elicited; for effect on EDRF/NO (nitrite) release: histamine-induced, FIG. 13. As for the experimental part:
Histamine was administered as a rapid bolus injection into the aorta and net nitrite release during the subsequent 2.5 minutes was determined.

With `CNC(=N)NCCC[C@H](N)C(=O)O` [NMMA, N^G -methyl-L-arginine], the “blood pressure increase by NMMA” value in assay [1] (nitroglycerin 28 μg/kg/minute IV) is recorded as 14 mm. Further, the “antagonism of nitroglycerin hypotension” value in assay [1] (similar level of hypotension) was “not antagonized”. Moreover, the “blood pressure with readministration of NMMA” value in the assay on endotoxemic dogs (FIG. 24) is recorded as “maintained”. Besides, the “increase in blood pressure by NMMA” value in the assay on endotoxemic dogs (NMMA 5 mg/kg after ET 1 μg/kg) is reported as 33±2.5 mmHg; in the assay on endotoxemic dogs (lethal shock, 100 μg/ml endotoxin, NMMA 20 mg/kg), 65 mm; in assay [2] (FIG. 7a, TNF-treated), 79 mm. In addition, the “time to blood pressure increase” value in the assay with endotoxemic dogs (NMMA 5 mg/kg after ET 1 μg/kg) is not above 1.5 min. The “blood pressure after NMMA” value in assay [2] (FIG. 7a, TNF-treated) amounted to 115 mm. In assay [2] (after TNF), the “time to pressor effect” value was not above 2 min. For the same compound, the “pressor response in TNF-hypotensive vs normotensive dogs” value in assay [2] (compared with normotensive dogs) is “much more dramatic in dogs with TNF-induced hypotension than in normotensive dogs”. The “reversal of TNF-associated hypotension” value in assay [2] (dogs, TNF 10 mcg/kg) is on record as “blocked; also recorded: reverse the hypotension”. In addition, the “HR, CO or SVR after L-NMA” value in assay [3] (L-NMA 20 mg/kg) is given as “without significant alteration in HR, CO, or SVR”. Further, the “Cardiac Output” value in assay [3] worked out at 3.85 ± 0.8 L/min; in the assay with control dogs (Table 2, control dogs (n = 4)) it was 2.12 ± 0.26 L/min. Moreover, the “Heart Rate” value in assay [3] is 191.7 ± 35.0 beats/min; in the assay with control dogs (Table 2, control dogs (n = 4)) it was 82.5 ± 6.1 beats/min. Besides, the Systemic Arterial Pressure was 81.8 ± 3.5 mmHg in assay [3] and 153.8 ± 11.4 mmHg in the assay on control dogs (Table 2, control dogs (n = 4)). Further, the “Systemic Vascular Resistance” value in assay [3] is recorded as 1851 ± 399 dynes-sec/cm^5; in the assay on control dogs (Table 2, control dogs (n = 4)), 5967 ± 523 dynes-sec/cm^5. In addition, the “increase in blood pressure (SAP) by L-NMA” value worked out at 17.1±5.0 mmHg in assay [3] (nitroglycerin infusion, L-NMA 20 mg/kg, n=3); 24.8±2.7 mmHg in the assay on control dogs (listed as L-NMA); 24.8±4.7 mmHg in the assay with control dogs (listed as N^G -methyl-L-arginine). Besides, the figures for the “increase in SVR” value in the assay on control dogs (other two control dogs) and in the assay with control dogs (two of four control dogs with marked decrease of cardiac output) were “about 1400 dynes-sec/cm^5” and not below 3500 dynes-sec/cm^5, respectively. Further, the “decrease in cardiac output” value in the assay on control dogs (two of four control dogs) was more than 1.5 L/min. Moreover, the “effect on coronary flow (vasodilation)” value in assay [4] is “attenuated”. The results for the “effect on EDRF/NO (nitrite) release” value in assay [4] and in assay [4] (listed as L-NMA) were “inhibition” and “inhibits EDRF/NO release”, respectively.

As for `N=C(N)NCCC[C@H](N)C(=O)O` [L-arginine, reference compound], the “effect of L-arginine after NMMA” value in assay [1] (nitroglycerin infused dogs) is reported as “reversed this modest effect”. For the same compound, in the assay on endotoxemic dogs (L-arginine 100 mg/kg), the “effect of L-arginine after NMMA” value is reported as “fall precipitously below the pre-NMMA level”. In assay [2] (FIG. 7a, after TNF and NMMA), the “blood pressure after L-arginine” value was 37 mmHg. Also, the “effect of L-arginine on NMMA pressor effect (words)” value in assay [2] is reported as “antagonized; also recorded: completely reversed; also recorded: rapid decrease of blood pressure”. The “effect of L-arginine on NMMA pressor effect (words)” value in assay [2] (listed as arginine) is given as “reversed”. Also, in assay [3], the “Cardiac Output” value amounted to 5.15 ± 1.08 L/min, the “Heart Rate” value stood at 148.7 ± 19.9 beats/min, the Systemic Arterial Pressure is 56.9 ± 13 mmHg and the “Systemic Vascular Resistance” value is reported as 1088.2 ± 491 dynes-sec/cm^5. In addition, the “effect of L-arginine on pressor effect of L-NMA” value in the assay with control dogs (400 mg/kg) is “fully reversed the pressor effect of L-NMA”. Besides, in assay [4], the “effect on coronary flow (vasodilation)” value is “restored” and the “effect on EDRF/NO (nitrite) release” value is on record as “restoration”.
